Results reported in patent publication US20210395239A1 (Hoffmann-La Roche Inc., priority 2018, published 2021).

Biological target: T1, human TLR7 (Homo sapiens, UniProt Q9NYK1)
T1 construct: host or cells: HEK293 (HEK-Blue hTLR7)
T1 sequence (Q9NYK1 27-1049): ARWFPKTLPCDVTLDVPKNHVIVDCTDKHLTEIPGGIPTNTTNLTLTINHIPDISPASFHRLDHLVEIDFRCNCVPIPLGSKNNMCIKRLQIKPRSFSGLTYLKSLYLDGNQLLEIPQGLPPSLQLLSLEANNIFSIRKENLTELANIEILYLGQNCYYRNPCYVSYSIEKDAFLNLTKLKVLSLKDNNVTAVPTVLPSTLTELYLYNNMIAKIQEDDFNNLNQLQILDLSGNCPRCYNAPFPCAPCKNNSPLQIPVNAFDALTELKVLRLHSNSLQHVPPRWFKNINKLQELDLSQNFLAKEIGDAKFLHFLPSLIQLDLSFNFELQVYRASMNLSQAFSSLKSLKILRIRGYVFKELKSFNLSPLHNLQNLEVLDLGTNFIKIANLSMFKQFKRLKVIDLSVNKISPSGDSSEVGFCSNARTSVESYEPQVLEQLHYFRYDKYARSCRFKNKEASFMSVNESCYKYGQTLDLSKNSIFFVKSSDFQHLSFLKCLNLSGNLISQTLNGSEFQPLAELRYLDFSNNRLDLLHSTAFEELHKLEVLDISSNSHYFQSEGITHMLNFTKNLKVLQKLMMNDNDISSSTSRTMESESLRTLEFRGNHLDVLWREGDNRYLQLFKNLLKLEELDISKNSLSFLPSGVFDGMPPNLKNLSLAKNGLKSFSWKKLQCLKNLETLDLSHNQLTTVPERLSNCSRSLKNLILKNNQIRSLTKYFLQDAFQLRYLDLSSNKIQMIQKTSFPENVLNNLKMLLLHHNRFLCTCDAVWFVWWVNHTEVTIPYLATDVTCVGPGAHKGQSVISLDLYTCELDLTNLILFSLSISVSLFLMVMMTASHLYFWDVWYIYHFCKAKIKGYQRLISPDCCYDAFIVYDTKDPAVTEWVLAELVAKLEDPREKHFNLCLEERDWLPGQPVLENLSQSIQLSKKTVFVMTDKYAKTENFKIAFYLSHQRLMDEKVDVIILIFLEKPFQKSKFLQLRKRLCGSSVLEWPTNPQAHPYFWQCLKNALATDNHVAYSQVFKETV
Assay: HEK293-Blue-hTLR-7 cells assay (SEAP reporter, R848 stimulation)
Format: cell-based
Details: HEK293-Blue-hTLR7 cells, R848, 20 hrs; read-out: HEK/hTLR7 IC50
Summary of the method: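 HEK293-Blue-hTLR7 cells (NF-κB/AP-1-driven SEAP reporter) were stimulated with R848 alongside serially diluted compound at 1% final DMSO for 20 h at 37 °C. Supernatant SEAP was then developed with QUANTI-Blue for 2 h at 37 °C and absorbance read at 620–655 nm; antagonism is measured as reduced reporter signal.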

| SMILES | IC50 [nM] |
| --- | --- |
| Cc1cc(N2CCN(C[C@H]3CN(c4ccc(C#N)c5ncccc45)C[C@@H](C)O3)CC2)nc(N2C[C@H](N)C[C@H](F)C2)n1 (relative stereo) [Example 74, 5-[(2R,6S)-2-methyl-6-[[4-[6-methyl-2-[cis-3-amino-5-fluoro-1-piperidyl]pyrimidin-4-yl]piperazin-1-yl]methyl]morpholin-4-yl]quinoline-8-carbonitrile] | 24 |
| Cc1cc(N2CCN(C[C@H]3CN(c4ccc(C#N)c5ncccc45)C[C@@H](C)O3)CC2)nc(N2C[C@H](N)C[C@@H](F)C2)n1 (relative stereo) [Example 75, 5-[(2R,6S)-2-methyl-6-[[4-[6-methyl-2-[trans-3-amino-5-fluoro-1-piperidyl]pyrimidin-4-yl]piperazin-1-yl]methyl]morpholin-4-yl]quinoline-8-carbonitrile] | 25 |
| COC1CNCC1Nc1nc(C)cc(N2CCN(C[C@H]3CN(c4ccc(C#N)c5ncccc45)C[C@@H](C)O3)CC2)n1 (stereo in doubt) [Example 70, 5-[(2S,6R)-2-[[4-[2-[[(3R,4R)-4-methoxypyrrolidin-3-yl]amino]-6-methyl-pyrimidin-4-yl]piperazin-1-yl]methyl]-6-methyl-morpholin-4-yl]quinoline-8-carbonitrile] | 70 |
| Cc1cc(N2CCN(C[C@H]3CN(c4ccc(C#N)c5ncccc45)C[C@@H](C)O3)CC2)nc(NC2CNCC2F)n1 (stereo in doubt) [Example 73, 5-[(2S,6R)-2-[[4-[2-[[(3S,4R)-4-fluoropyrrolidin-3-yl]amino]-6-methyl-pyrimidin-4-yl]piperazin-1-yl]methyl]-6-methyl-morpholin-4-yl]quinoline-8-carbonitrile] | 49 |
| Cc1cc(N2CCN(C[C@H]3CN(c4ccc(C#N)c5ncccc45)C[C@@H](C)O3)CC2)nc(N2CC[C@@H](N)C(F)C2)n1 (stereo in doubt) [Example 82, 5-[(2S,6R)-2-[[4-[2-[(3R,4R)-4-amino-3-fluoro-1-piperidyl]-6-methyl-pyrimidin-4-yl]piperazin-1-yl]methyl]-6-methyl-morpholin-4-yl]quinoline-8-carbonitrile] | 29 |
| Cc1cc(N2CCN(C[C@H]3CN(c4ccc(C#N)c5ncccc45)C[C@@H](C)O3)CC2)nc(N[C@@H]2CNC[C@@H]2F)n1 [Example 71, 5-[(2S,6R)-2-[[4-[2-[[(3R,4S)-4-fluoropyrrolidin-3-yl]amino]-6-methyl-pyrimidin-4-yl]piperazin-1-yl]methyl]-6-methyl-morpholin-4-yl]quinoline-8-carbonitrile] | 45 |
| Cc1cc(N2CCN(C[C@H]3CN(c4ccc(C#N)c5ncccc45)C[C@@H](C)O3)CC2)nc(N2C[C@@H](N)C[C@@H](F)C2)n1 [Example 77, 5-[(2S,6R)-2-[[4-[2-[(3S,5R)-3-amino-5-fluoro-1-piperidyl]-6-methyl-pyrimidin-4-yl]piperazin-1-yl]methyl]-6-methyl-morpholin-4-yl]quinoline-8-carbonitrile] | 26 |
| Cc1cc(N2CCN(C[C@H]3CN(c4ccc(C#N)c5ncccc45)C[C@@H](C)O3)CC2)nc(N2CC(N)CC(F)(F)C2)n1 (stereo partly drawn) [Example 80, 5-[(2S,6R)-2-[[4-[2-(5-amino-3,3-difluoro-1-piperidyl)-6-methyl-pyrimidin-4-yl]piperazin-1-yl]methyl]-6-methyl-morpholin-4-yl]quinoline-8-carbonitrile] | 107 |
| Cc1cc(N2CCN(C[C@H]3CN(c4ccc(C#N)c5ncccc45)C[C@@H](C)O3)CC2)nc(N2CCNC(C(C)(C)O)C2)n1 (stereo partly drawn) [Example 81, 5-[(2S,6R)-2-[[4-[2-[3-(1-hydroxy-1-methyl-ethyl)piperazin-1-yl]-6-methyl-pyrimidin-4-yl]piperazin-1-yl]methyl]-6-methyl-morpholin-4-yl]quinoline-8-carbonitrile] | 22 |
| Cc1cc(N2CCN(C[C@H]3CN(c4ccc(C#N)c5ncccc45)C[C@@H](C)O3)CC2)nc(N2CC[C@@H](F)[C@@H](N)C2)n1 [Example 83, 5-[(2R,6S)-2-methyl-6-[[4-[6-methyl-2-[(3S,4R)-3-amino-4-fluoro-1-piperidyl]-pyrimidin-4-yl]piperazin-1-yl]methyl]morpholin-4-yl]quinoline-8-carbonitrile] | 32 |
| Cc1cc(N2CCN(C[C@H]3CN(c4ccc(C#N)c5ncccc45)C[C@@H](C)O3)CC2)nc(N2CCC(N)C(F)(F)C2)n1 (stereo partly drawn) [Example 86, 5-[(2S,6R)-2-[[4-[2-(4-amino-3,3-difluoro-1-piperidyl)-6-methyl-pyrimidin-4-yl]piperazin-1-yl]methyl]-6-methyl-morpholin-4-yl]quinoline-8-carbonitrile] | 22 |

Stronger by IC50, values ahead:

| IC50 [nM] | SMILES |
| --- | --- |
| 21 | COC1CN(c2nc(C)cc(N3CCN(C[C@H]4CN(c5ccc(C#N)c6ncccc56)C[C@@H](C)O4)CC3)n2)CC1N (single isomer, unassigned) [Example 88] |
| 21 | CO[C@H]1CN(c2nc(C)cc(N3CCN(C[C@H]4CN(c5ccc(C#N)c6ncccc56)C[C@@H](C)O4)CC3)n2)CCC1N (stereo in doubt) [Example 90, 5-[(2S,6R)-2-[[4-[2-[(3S,4S)-4-amino-3-methoxy-1-piperidyl]-6-methyl-pyrimidin-4-yl]piperazin-1-yl]methyl]-6-methyl-morpholin-4-yl]quinoline-8-carbonitrile] |
| 21 | Cc1cc(N2CCN(C[C@H]3CN(c4ccc(C#N)c5ncccc45)C[C@@H](C)O3)CC2)nc(N2C[C@@H](N)[C@H](F)C2)n1 [Example 79, 5-[(2S,6R)-2-[[4-[2-[(3R,4R)-3-amino-4-fluoro-pyrrolidin-1-yl]-6-methyl-pyrimidin-4-yl]piperazin-1-yl]methyl]-6-methyl-morpholin-4-yl]quinoline-8-carbonitrile] |
| 20 | Cc1cc(N2CCN(C[C@H]3CN(c4ccc(C#N)c5ncccc45)C[C@@H](C)O3)CC2)nc(N[C@@H]2CNC[C@H]2F)n1 [Example 76, 5-[(2S,6R)-2-[[4-[2-[[(3R,4R)-4-fluoropyrrolidin-3-yl]amino]-6-methyl-pyrimidin-4-yl]piperazin-1-yl]methyl]-6-methyl-morpholin-4-yl]quinoline-8-carbonitrile] |
| 20 | Cc1cc(N2CCN(C[C@H]3CN(c4ccc(C#N)c5ncccc45)C[C@@H](C)O3)CC2)nc(N2CC[C@@H](N)[C@@H](F)C2)n1 [Example 78, 5-[(2S,6R)-2-[[4-[2-[(3S,4R)-4-amino-3-fluoro-1-piperidyl]-6-methyl-pyrimidin-4-yl]piperazin-1-yl]methyl]-6-methyl-morpholin-4-yl]quinoline-8-carbonitrile] |
| 11 | CO[C@H]1CN(c2nc(C)cc(N3CCN(C[C@H]4CN(c5ccc(C#N)c6ncccc56)C[C@@H](C)O4)CC3)n2)C[C@@H]1N (single isomer, unassigned) [Example 69A] |
| 10 | Cc1cc(N2CCN(C[C@H]3CN(c4ccc(C#N)c5ncccc45)C[C@@H](C)O3)CC2)nc(N2CC[C@@H](F)C(N)C2)n1 (single isomer, unassigned) [Example 84] |
| 8 | Cc1cc(N2CCN(C[C@H]3CN(c4ccc(C#N)c5ncccc45)C[C@@H](C)O3)CC2)nc(N2CC(N)C2)n1 [Example 87, 5-[(2S,6R)-2-[[4-[2-(3-aminoazetidin-1-yl)-6-methyl-pyrimidin-4-yl]piperazin-1-yl]methyl]-6-methyl-morpholin-4-yl]quinoline-8-carbonitrile] |
| 7 | CO[C@@H]1CN(c2nc(C)cc(N3CCN(C[C@H]4CN(c5ccc(C#N)c6ncccc56)C[C@@H](C)O4)CC3)n2)C[C@H]1N (single isomer, unassigned) [Example 69B] |
| 6 | CO[C@@H]1CN(c2nc(C)cc(N3CCN(C[C@H]4CN(c5ccc(C#N)c6ncccc56)C[C@@H](C)O4)CC3)n2)C[C@@H]1N [Example 72, 5-[(2S,6R)-2-[[4-[2-[(3S,4R)-3-amino-4-methoxy-pyrrolidin-1-yl]-6-methyl-pyrimidin-4-yl]piperazin-1-yl]methyl]-6-methyl-morpholin-4-yl]quinoline-8-carbonitrile] |
| 6 | C[C@@H]1CN(c2ccc(C#N)c3ncccc23)C[C@H](CN2CCN(c3ccccc3C3CNCCO3)CC2)O1 (stereo partly drawn) [Example 89, 5-[(2R,6S)-2-methyl-6-[[4-(2-morpholin-2-ylphenyl)piperazin-1-yl]methyl]morpholin-4-yl]quinoline-8-carbonitrile] |
